From US8784782B2 (Senomyx, Inc., priority 2005, dated 2014) come the findings set out here.

For this test, the system named is un-induced I-17 cells. In words: FLIPR assay on un-induced I-17 cells (receptor dependency control). It is filed as cell-based. The settings on record: un-induced I-17 cells (no mifepristone). As to the method:
In order to determine the dependency of hT1R1/hT1R3 for the cell response to different stimuli, selected compounds were subjected to a similar analysis on I-17 cells that had not been induced for receptor expression with mifepristone (designated as un-induced I-17 cells). […] Compounds were presented to un-induced umami cells at […]—or three times the maximum stimulation used in the dose-response analysis.

As to `N[C@@H](CCC(=O)O)C(=O)[O-].[Na+]` [monosodium glutamate], the “functional response in the FLIPR assay” value is “do not show any functional response”.
